Literature values in patent US6543389B2, “Insecticidal pet collar” (Pfizer Inc., priority 2001, dated 2003).

Assays:
ticks [1] = conditions: collars as currently marketed, extruded matrix containing about 9% by weight of amitraz
ticks [2] = conditions: as compared with fipronil
alpha-2 adrenoceptor = conditions: affected dogs, injected intramuscularly

For `Cc1ccc(N=CN(C)C=Nc2ccc(C)cc2C)c(C)c1` [Amitraz, 1,5-di-(2,4-dimethylphenyl)-3-methyl-1,3,5-triazapenta-1,4-diene], the “duration of tick protection” value (ticks [1]) is listed as “about four” and the “effect on numbers of live feeding ticks, egg hatchability, and larval viability” value (ticks [2]) is listed as “significantly greater effect”.
In the case of `CCC1(c2c[nH]cn2)Cc2ccccc2C1` [atipamezole, 4-(2-ethyl-2,3-dihydro-1H-inden-2-yl)-1H-imidazole], the “reversing effects of amitraz toxicosis” value (alpha-2 adrenoceptor) is given as “effective in reversing effects of amitraz toxicosis”.
